What was measured:
[1] = molecular target: T1, human FP receptor (Homo sapiens, UniProt P43088); test: Radioligand binding competition vs 3H-17-phenyl PGF2α, recombinant human FP receptor; design: expressed in transfected cells; conditions: for % specific binding mean χ ± SEM: vs 5nM 3H-17-phenyl PGF2α, n = 3
Procedure: (§1) Plasma membrane preparations of HEK 293 cells stably transfected with the human or feline FP receptor were obtained as follows. Cells washed with TME buffer were scraped from the bottom of the flasks and homogenized for 30 sec using a Brinkman PT 10/35 polytron. TME buffer was added as necessary to achieve a 40 ml volume in the centrifuge tubes. TME is comprised of 100 mM TRIS base, 20 mM Mg Cl2, 2 m EDTA; physiological pH is achieved by adding 10 N HCl. The cell homogenate was centrifuged at 19,000 rpm for 20 min at 4-6° C. using a Beckman Ti-60 rotor. The pellet was then resuspended in TME buffer to provide a final protein concentration of 1 mg/ml, as determined by Biorad assay. Radioligand binding assays were performed in a 200 μl volume.
Incubations were for 60 min at 25° C. and were terminated by the addition of 4 ml of ice-cold 50 mM TRIS-HCl followed by rapid filtration through Whatman GF/B filters and three additional 4 ml washes in a cell harvester (Brandel).

[2] = molecular target: T2, recombinant feline FP receptor (Felis catus, UniProt A0ABI7XJ69); test: Total inositol phosphate accumulation, HEK-293 cells with recombinant feline FP receptor; format: cell-based, cat; conditions: read-out: E.C.50, total inositol phosphate accumulation
Procedure: Ten days after transfection, hygromycin B resistant clones were individually selected and transferred to a separate well on a 24 well plate. At confluence each clone was transferred to one well of a 6 well plate, and then expanded in a 10 cm dish. Cells were maintained under continuous hygromycin selection until use. The stable cat FP receptor transfectants were similarly prepared using […]. Again cells were grown to 50-60% confluency on 10 cm plates and the plasmid pCEP4, incorporating cDNA inserts for the feline FP receptor, was transfected using lipofectin. Hygromycin B selection was started 48 hr post-transfection. Eight days after transfection, hygromycin B resistant clones were selected and transferred to 24 well plates. Ca^2+ signaling studies on recombinant cat and human FP receptors were performed in an identical manner to that described for the CRL 1497 cell studies.
Receptor-mediated phosphoinositide (PI) hydrolysis was determined by measuring the accumulation of total inositol phosphates (IP) in cells preincubated with ^3H-myoinositol. Stable cell lines of HEK 293 cells expressing human or cat FP receptors were plated in 10 cm dishes (10^6 cells per dish in DMEM with 10% FBS). […] The eluate was mixed with 10 ml Aquasol scintillation fluid (Packard Instrument Co.) and total [^3H] inositol phosphates was determined by a liquid scintillation counter.

[3] = molecular target: T1, human FP receptor; test: Total inositol phosphate accumulation, HEK-293 cells with recombinant human FP receptor; format: cell-based; design: expressed in transfected cells; conditions: for % maximal total inositol phosphate accumulation mean χ ± SEM: reference 17-phenyl PGF2α 10^−6 M
Procedure: HEK-293 cells were grown in DMEM with 10% fetal bovine serum (FBS), 250 μg ml^−1 G418 (Life Technologies) and 200 μg ml^−1 gentamicin or penicillin/streptomycin. […] For transfection, the cells were grown to 50-60% confluency on 10 cm plates. The plasmid pCEP4 incorporating cDNA inserts for the human FP receptor (20 μg) was added to 500 μl of 250 mM CaCl2. HEPES buffered saline×2 (2×HBSS, 280 mM NaCl, 20 mM HEPES acid, 1.5 mM Na2 HPO4, pH 7.05-7.12) was then added dropwise to a […], with continuous vortexing at room temperature. After 30 min, 9 ml DMEM were added to the mixture. The DNA/DMEM/calcium phosphate mixture was then added to the cells, which had been previously rinsed with 10 ml phosphate buffered saline (PBS). The cells were then incubated for 5 h. at 37° C. in humidified 95% air/5% CO2. The calcium phosphate solution was then removed and the cells were treated with 10% glycerol in DMEM for 2 min. The glycerol solution was then replaced by DMEM with 10% fetal bovine serum (FBS). The cells were incubated overnight and the medium was replaced by DMEM/10% FBS containing 250 μg ml^−1 G418 and penicillin/streptomycin. The following day hygromycin B was added to a final concentration of 200 μg ml^−1.
Receptor-mediated phosphoinositide (PI) hydrolysis was determined by measuring the accumulation of total inositol phosphates (IP) in cells preincubated with ^3H-myoinositol. Stable cell lines of HEK 293 cells expressing human or cat FP receptors were plated in 10 cm dishes (10^6 cells per dish in DMEM with 10% FBS). The following day, the cells were incubated with 18 μCi myo-[2 ^3H] inositol (Amersham; […]) in 6 ml of DMEM with 10% FBS for 24 hours at 37° C. The cells were then rinsed twice with phosphate buffered saline (PBS), incubated for 5 min with 1 ml of trypsin-EDTA, and suspended in 10 ml DMEM containing 25 mM HEPES buffer. Cells were pelleted at 1000 rpm and resuspended in DMEM/25 mM HEPES containing 10 mM LiCl for 10 minutes. Aliquots of 200 μl cell suspension were incubated with 50 μl drug for 30 minutes at 37° C. (duplicate determination), and agonist stimulation was terminated with a 750 μl mixture of chloroform:methanol:4N HCl (100:200:2), followed by addition of 250 μl of chloroform and 0.5 N HCl for extraction of inositol phosphates. A 750 μl volume of the aqueous layer was loaded on columns packed with 0.5 ml of Dowex AG 1-X8 anion-exchange resin (formate form, 100-200 mesh; BioRad) to separate radiolabeled components. The elution procedure consisted of three 3 ml washes with 5 mM inositol, then two elutions with 750 μl of 1.3 M ammonium formate with 0.1 M formic acid. The eluate was mixed with 10 ml Aquasol scintillation fluid (Packard Instrument Co.) and total [^3H] inositol phosphates was determined by a liquid scintillation counter.

[4] = molecular target: T2, recombinant feline FP receptor; test: Radioligand binding competition vs 3H-17-phenyl PGF2α, recombinant feline FP receptor; design: species or system cat
Procedure: as §1, with “TME is comprised of 100 mM TRIS base, 20 mM Mg Cl2, 2 m EDTA; physiological pH is achieved by adding 10 N HCl.” left out, “[…] Incubations” for “Radioligand binding assays”, “for 60 min at 25° C. and were terminated by the addition of 4 ml of ice-cold 50 mM TRIS-HCl followed by rapid filtration through Whatman GF/B filters and three additional 4 ml washes” for “performed”, “cell harvester (Brandel).” for “200 μl volume.”

T2 sequence (A0ABI7XJ69 entry or part of it): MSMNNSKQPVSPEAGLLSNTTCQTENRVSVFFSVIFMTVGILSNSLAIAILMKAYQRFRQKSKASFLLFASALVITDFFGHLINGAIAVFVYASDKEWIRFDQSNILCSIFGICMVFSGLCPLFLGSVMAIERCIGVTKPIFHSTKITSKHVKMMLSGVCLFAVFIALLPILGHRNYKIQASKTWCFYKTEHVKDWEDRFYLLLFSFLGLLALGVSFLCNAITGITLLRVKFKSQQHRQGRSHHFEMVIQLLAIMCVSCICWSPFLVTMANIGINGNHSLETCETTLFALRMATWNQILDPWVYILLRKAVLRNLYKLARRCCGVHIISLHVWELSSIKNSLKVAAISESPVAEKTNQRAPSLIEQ
T1 sequence (P43088 whole entry): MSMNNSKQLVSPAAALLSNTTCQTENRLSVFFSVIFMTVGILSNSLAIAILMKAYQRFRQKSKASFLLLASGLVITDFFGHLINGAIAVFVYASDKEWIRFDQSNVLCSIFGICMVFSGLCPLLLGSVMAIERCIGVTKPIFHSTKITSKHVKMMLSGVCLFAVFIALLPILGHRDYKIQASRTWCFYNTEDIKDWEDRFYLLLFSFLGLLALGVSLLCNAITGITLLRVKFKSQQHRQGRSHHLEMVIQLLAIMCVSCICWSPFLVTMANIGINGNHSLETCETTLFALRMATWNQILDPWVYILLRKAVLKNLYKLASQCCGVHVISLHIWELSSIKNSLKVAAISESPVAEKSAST

% specific binding mean χ ± SEM ([1]; 10^−5 M): 0 ± 0% | % specific binding mean χ ± SEM ([1]; 10^−6 M): 1.7 ± 1.7% | % specific binding mean χ ± SEM ([1]; 10^−7 M): 5.3 ± 1.5% | % specific binding mean χ ± SEM ([1]; 10^−8 M): 24.0 ± 1.2% | % specific binding mean χ ± SEM ([1]; 10^−9 M): 65.0 ± 1.0% | % specific binding mean χ ± SEM ([1]; 10^−10 M): 98 ± 1.1% | IC50 ([1]; vs 5 nM 3H-17-phenyl PGF2α, human FP receptor, read-out: I.C.50, radioligand binding): 2.3 nM | EC50 [2]: 9 nM | % maximal total inositol phosphate accumulation mean χ ± SEM ([3]; 10^−6 M): 100 ± 1.3% | % maximal total inositol phosphate accumulation mean χ ± SEM ([3]; 10^−7 M): 92.3 ± 0.9% | % maximal total inositol phosphate accumulation mean χ ± SEM ([3]; 10^−8 M): 57.8 ± 2.0% | % maximal total inositol phosphate accumulation mean χ ± SEM ([3]; 10^−9 M): 14.7 ± 3.3% | EC50 ([3]; HEK-293 cells, recombinant human FP receptor, read-out: E.C.50, total inositol phosphate accumulation): 8 nM | affinity for the feline receptor ([4]; radioligand binding): high affinity | IC50 ([4]; vs 5 nM 3H-17-phenyl PGF2α, feline FP receptor, read-out: inhibitory concentration50 (I.C.50), radioligand binding): 43.5 nM
SMILES: O=C(O)CCC/C=C\C[C@@H]1[C@@H](/C=C/[C@@H](O)CCc2ccccc2)[C@H](O)C[C@@H]1O [17-phenyl PGF2α, 17-phenyl prostaglandin F2α, reference compound]

From patent US6395787B1, “Ocular hypotensive lipids” (Allergan Sales, Inc., priority 2000, dated 2002)
